Patent publication US20050124618A1, “Methods of modulating angiogenesis and cancer cell proliferation” (priority 2003, published 2005)
“Also recorded” adds a separate entry of the source.

Columns and labels:
p42/p44 MAPK = assay: Western blot of phospho-p42/p44 MAPK in U251 cells; type: cell-based, human; settings: 10 μM HET0016, 24 and 48 hr
Experimental: They were then pelleted by centrifugation at 1,000 g for 5 min at 4° C. Cells were lysed by adding RIPA buffer [20 mM HEPES (pH 7.4), 100 mM NaCl, 1% Nonidet P-40, 0.1% SDS, 1% deoxycholic acid, 10% glycerol, 1 mM EDTA, 1 mM NaVO3, 50 mM NaF, and Protease Inhibitors Set 1 (Calbiochem, La Jolla, Calif.)]. Plates were then scraped and cells collected in a 1.5-ml centrifuge tube, followed by incubation on ice for 30 min. Homogenates of the cell suspension were centrifuged for 10 min at 14,000 g and 4° C.; the pellets were discarded and protein concentrations in the supernatant determined by bicinchoninic acid (BCA) protein assay.
Typically, 20 μg of protein was separated on a 14% Tris-glycine gel (Invitrogen) and electroblotted on a PVDF membrane (Biotrace, Bothell, Wash.). Membranes were blocked for 1 h at room temperature with blocking buffer [0.2% I-Block reagent (Tropix, Bedford, Mass.), 0.1% Tween-20 in […]] before incubation with primary antibodies in blocking buffer (overnight at 4° C.). […] Both phospho-tyrosine (Y102) and phospho-serine/threonine-Pro MPM2 were detected using a 1:2000 dilution of the corresponding antibodies, whereas phospho-p44/p42MAPK and phospho-SAPK/JNK were detected using 1:1000 antibody dilutions. […]

rat cornea = assay: Rat cornea pocket angiogenesis assay (growth factor pellets); type: in vivo
Experimental: (i) Preparation of sustained-release polymer: Sustained-release polymer pellets were prepared by making a 1:1 mix of a 12% solution in ethanol of the polymer (Hydron polyhydroxyethylmethacrylate), with saline containing the growth factors. The growth factors bFGF, VEGF, and EGF were dissolved at a concentration of 125 ng/μl. […] 2 μl of these solutions were added to each pellet. Thus, a pellet containing 250 ng of a single growth factor was implanted at random in the right or left eye. The other eye was implanted with a pellet containing the same dose of growth factor+HET0016. In some rats the pellet contained VEGF alone and VEGF+DDMS. 20 μg of the stable 20-HETE agonist analog WIT003 was implanted in one eye to determine whether it induces angiogenesis. […] 9 μl of the 1:1 Hydron/treatment mixture was placed on the ends of 1.5-cm rods. Each pellet contained 250 ng of its respective growth factor. For bFGF we used sucralfate to stabilize and allow sustained release of this growth factor (Volkin D B et al., Biochim Biophys Acta 1993, 1203:18-26). After drying the pellets for 1 hour, they were ready to be implanted into the cornea of rats.
(ii) Pellet implantation: The rats were anesthetized IM with ketamine (80 mg/kg) and xylazine (10 mg/kg). The eyes were topically anesthetized with 0.5% proparacaine (Ophthetic, Alcon, Tex.) and the globes proptosed with a jeweler's forceps. Using an operating microscope, a central intrastromal linear keratotomy, approximately 1.5 mm in length, was performed with a surgical blade (Bard-Parker #11; Becton Dickinson, Franklin Lake, N.Y.) parallel to the insertion of the lateral rectus muscle. A curved iris spatula (No. 10093-13, Fine Science Tools, Belmont, Calif.) approximately 1.5 mm wide and 5 mm long was inserted under the lip of the incision and gently pushed through the stroma toward the temporal limbus of the eye. The distance between the limbus and the base of the pocket was kept at 1.0±0.1 mm. The pellet was advanced to the temporal end of the pocket. Antibiotic ointment (erythromycin) was applied to the anterior surface of the eye.
(iv) Quantitation of corneal neovascularization: Seven days after pellet implantation, the rats were deeply anesthetized as previously described with ketamine and xylazine. The left ventricle was cannulated and the animal was perfused with 20-25 ml saline through the left ventricle followed by 20-25 ml India ink (waterproof drawing ink, Sanford, Bellwood, Ill.). The eyes were marked for orientation, enucleated and placed in 4% formalin for 24 hours. The cornea was dissected free from the surrounding globe and underlying iris, bisected, and loosely mounted between two glass slides, thus gently flattening the cornea. These flat mounts were examined microscopically using a Nikon Diaphot Epi-fluor 2 microscope attached to a CCD video camera and the images were digitized and saved using a computer.
Neovascularization was determined by comparing total vessel length in the control and experimental eyes. Vessel length was determined by tracing each vessel from the limbus to the pellet. Total length is the sum of these values in pixels and was determined using conventional image analysis software (Sigma Scan Pro, SPSS, Chicago, Ill.)

9L rat gliosarcoma cells = assay: [3H]thymidine incorporation in 9L cells; type: cell-based; settings: 10 μM HET0016
Experimental: [^3H]Thymidine Incorporation Studies: Thymidine incorporation studies were performed with cells grown in 35-mm culture dishes. […] Palmitic acid and EtOH served as nonspecific fatty acid and vehicle controls, respectively. At the end of the pulse, the medium was aspirated and the cells rinsed twice with cold 1× phosphate buffered saline (PBS). The rinsed cultures were fixed by exposure to cold 5% trichloracetic acid overnight at 4° C., after which fixed cells were extracted as described previously (Scholler et al., Mol. Pharmacol. 45: 944-954, 1994). A second set of non-fixed dishes was treated with 0.05% trypsin/EDTA to estimate cell numbers. [^3H]thymidine was detected by scintillation counting and expressed as dpm/10^3 cells.

`CCCCc1ccc(N=CNO)c(C)c1` [HET0016, N-hydroxy-N′-(4-butyl-2 methylphenyl) formamidine] was tested, and the “phosphorylation of p42/p44 MAPK” value (p42/p44 MAPK) was “specifically inhibited phosphorylation”, the “angiogenic response to inhibitor alone” value (rat cornea; 20 μg HET0016 or 10 μg DDMS per pellet, no growth factor) was “Neither HET0016 nor DDMS alone elicited a response different from saline” and the “effect on the angiogenic response to EGF” value (rat cornea; EGF 250 ng/pellet + 20 μg HET0016) was “drastically decreased the angiogenic response; also recorded: obliterated; also recorded: blocks the angiogenic response”. For the same compound, the “reduction of angiogenic responses to VEGF” value (rat cornea; VEGF 250 ng/pellet + 5 μg HET0016) was “about 50%”, the “effect on the angiogenic response to VEGF” value (rat cornea; VEGF 250 ng/pellet + 20 μg HET0016, 7 days) was “almost completely abolished; also recorded: obliterated; also recorded: inhibit angiogenic responses to VEGF” and the “effect on the angiogenic response to VEGF” value (rat cornea; VEGF 250 ng/pellet + 40 μg HET0016) was “almost completely abolished”. For the same compound, the “effect on the angiogenic response to bFGF” value (rat cornea; bFGF 250 ng/pellet + 20 μg HET0016) was “drastically decreased the angiogenic response; also recorded: obliterated; also recorded: blocks the angiogenic response” and the “reduction of thymidine incorporation in 9L cultures” value (9L rat gliosarcoma cells) was 60%.
